Assay [1] concerns CSM14.1 neuronal cells. The assay can be described thus: Cell survival assay (thapsigargin-treated cells, CELLTITER-GLO luminescence). The class given is cell-based. The conditions noted are these: compound 2 hrs before about 15 μM thapsigargin, overnight. The procedure:
CSM14.1 neuronal cells were maintained in Complete Medium at 32° C.; wherein the Complete Medium contained Dulbecco's modified eagle medium (DMEM) with 10% fetal bovine serum (FSB), 1% L-glutamine, 100 IU/mL penicillin, and 100 μg/mL streptomycin. The cells were recovered from cultures by trypsinization and then seeded in 384 well plates (Greiner #781098) at a concentration of 1,000 cells/well in 20 μL of DMEM Assay Medium, wherein the DMEM Assay Medium contained 2% FBS, 100 IU/mL penicillin, and 100 μg/mL streptomycin. Seeding was performed using a MultiDrop Combi reagent broadcaster. The plates were incubated overnight at 32° C. A test compound was prepared by 2-fold serial dilution in 100% DMSO using a BIOMEK® 2000 liquid handler (Beckman Coulter). A dose-response curve containing 10 concentrations of the test compound was obtained. Using a BIOMEK® FX liquid handler (Beckman Coulter), 2.5 μL of the test compound was transferred from the 100% DMSO serial dilution plate to an intermediate plate containing 47.5 μL of DMEM Assay Medium containing 2% FBS, 100 IU/mL penicillin, and 100 μg/mL streptomycin and mixed. To reduce or eliminate the interference from the compound's precipitation, 6 μL of the diluted compound was immediately transferred to the assay plate to achieve a high compound concentration of 100 μM in 99% DMEM Assay Medium and 1% DMSO. After the assay plates were incubated for 2 hrs, 4 μL of 112.5 μM thapsigargin (TG) (DMSO stock diluted into Assay TC Medium) was dispensed into each testing well with a MultiDrop Combi reagent broadcaster for a final concentration of about 15 μM TG. The tissue culture media (4 μL) containing vehicle only was transferred manually to each control cell using a 16 channel electronic pipette. After the plates were incubated overnight (about 16 to 24 hrs), CELLTITER-GLO® (Promega) (16 μL) was added to all wells and luminescence was measured. High luminescence indicates cell survival. The biological results are summarized in Table 1 where A represents a cell viability EC50 less than 1 μM and B represents a value greater than 1 μM and less than 10 μM and C represents a value equal to or greater than 10 μM and less than 20 μM.
A general note: ATP-based viability assays read luminescence as a measure of living cells.

For assay [2], the system named is Ob/ob mice. The assay can be described thus: Effect of a SERCA agonist on the level of blood glucose. Format: in vivo. The conditions noted are these: Mus musculus, ip, 96 h, 50 mg/kg i.p. once a day for 5 days, fasting glucose at baseline and 4 days after administration, read-out: Glucose level reduction. The method, then: Ob/ob mice (10 weeks old, n=7) were intraperitoneally (i.p.) injected with 100 μL of a solution containing 0 (vehicle) or 50 mg/kg of a test compound once a day for a total of 5 days. Fasting glucose was measured at baseline and 4 days after the administration of the test compound. Glucose levels were measured in blood samples drawn from the tail vein using a handheld glucose sensor. Compound effects on blood glucose are shown in Table 5 where A represents a 10-20% reduction in blood glucose, B represents a 21-30% reduction in blood glucose, and C represents a greater than 30% reduction in blood glucose levels.

For assay [3], the system named is HEK293 cells; N2a cells. The experiment in a line: Cell rescue assay: protection against thapsigargin (TG)-induced cell-death (ALAMARBLUE). Format: cell-based, Human; Mouse. The conditions noted are these: Homo sapiens; compound 20 μM, 2 hrs before thapsigargin (15 μM HEK293, 1 μM N2a), 24 hrs; viability as % RFU compared to control; read-out: Cell Survival %. The procedure:
Protection against Thapsigargin (TG)-induced Cell-death. Human embryonic kidney (HEK293) cells were grown in Dulbecco's Modified Eagle's Medium (DMEM) with 10% FBS and 1% antibiotic antimycotic solution (ABAM). Mouse neuroblastoma (N2a) cells were grown in 1:1 DMEM:OPTI-MEM® with 5% FBS and 1% ABAM. All cells were grown in 10% CO2 in a humidified environment of the incubator. Cells grown in 96-well plates were exposed to a test compound (20 μM) for 2 hrs before addition of thapsigargin (15 μM for HEK293 cells and 1 μM for N2a cells) to induce ER stress. After incubation in cell-culture incubator for 24 hrs, ALAMARBLUE® regent (10% v/v) was added to the wells. Fluorescence reading was taken 2 hrs after the addition of the ALAMARBLUE® regent. Cell-viability was calculated as a percentage of relative fluorescence unit (RFU) compared to control. […] The biological results are summarized in Table 2, where each compound was tested at 20 μM and where A represents a viability greater than 50%, B represents a viability greater than 10% and less than 50%, C represents a value at or below 10%.

Assay [4] relates to SH-SY5Y cells. The assay can be described thus: Cell rescue assay: protection against ß-amyloid-induced cell toxicity. The class given is cell-based. The conditions noted are these: Homo sapiens, 96 h, 7.5 uM compound, AB 1-42 at 10 uM, 4 days, OD at 490 nm, read-out: Cell Survival % (cell rescue). The procedure: Protection against ß-amyloid-induced cell toxicity. Chonpathompikunlert et al. Eu. J. Pharmacol. 2011, 650, 544-549. Human SH-SY5Y cells are suspended in media containing 2% FBS and 2× Gentamicin. Transfer 100 ul/well culture to 96-well plate (20,000 cells/well; passage #5) and incubate overnight. Prepare compound samples at 30 uM. Add 50 ul of the samples to the cells [[…]] and incubate 3 hours. Make stock of 40 uM AB 1-42 peptide in assay media. Transfer 50 ul/well to cells/compounds in assay plate. The final assay volume is 200 ul/well, containing 2% FBS, 2× Gentamicin, 7.5 uM compound and AB 1-42 at 10 uM. Incubate for 4 days then add 20 ul of Promega Substrate Cell Titer 96 Aqueous One Solution Reagent to each well. Incubate 37 OC and read OD at 490 nm. The results are summarized in Table 3, where A represents a value equal to or greater than 50% cell rescue, B represents a value greater than 10% and less than 50% cell rescue, and C represents a value greater than 1% and less than or equal to 10% cell rescue.

The target of assay [5] is T1, SERCA (Homo sapiens, UniProt P16615).
T1 construct: microsomal preparations from HEK 293 cells; endogenous in cells; host or cells: HEK 293 cells (microsomal preparation)
The assay can be described thus: Ca-ATPase assay (NADH-linked, enzyme-coupled ATPase assay). Format: biochemical. The conditions noted are these: microsomal preparations from HEK 293 cells, Vmax from Hill fit of ATPase calcium-dependence, relative to controls. The method, then:
A Ca-ATPase assay was performed using microsomal preparations from HEK 293 cells at a series of calcium concentrations corresponding to the physiological range, relative to controls. The ATP hydrolysis rate was measured over a range of calcium concentrations in the presence of test compounds using an NADH-linked, enzyme-coupled ATPase assay adapted for 96-well microplates, with Vmax determined by fitting the ATPase calcium-dependence to the Hill function. Each well contained 2 μg or 7 μg of SR vesicles (optimized for skeletal or cardiac SR, respectively), 50 mM MOPS (pH 7.0), 100 mM KCl, 5 mM MgCl2, 1 mM EGTA, 0.2 mM NADH, 1 mM phosphoenol pyruvate, 5 IU pyruvate kinase, 5 IU lactate dehydrogenase, and 3.5 μg/mL A23187 (a calcium ionophore). CaCl2 was added to set free [Ca^2+] to the specific values. The assay was started upon addition of ATP at a final concentration of 5 mM, and read in a SpectraMax Plus microplate spectrophotometer. The results are summarized in Table 4, where A represents an increase in SERCA Vmax greater than or equal to 50% and B represents a value greater than 10% and less than 50%.

A word on the EC50: it is the concentration that produces a half-maximal response. Read a high EC50 as a less potent agent.

T1 sequence (P16615 whole entry): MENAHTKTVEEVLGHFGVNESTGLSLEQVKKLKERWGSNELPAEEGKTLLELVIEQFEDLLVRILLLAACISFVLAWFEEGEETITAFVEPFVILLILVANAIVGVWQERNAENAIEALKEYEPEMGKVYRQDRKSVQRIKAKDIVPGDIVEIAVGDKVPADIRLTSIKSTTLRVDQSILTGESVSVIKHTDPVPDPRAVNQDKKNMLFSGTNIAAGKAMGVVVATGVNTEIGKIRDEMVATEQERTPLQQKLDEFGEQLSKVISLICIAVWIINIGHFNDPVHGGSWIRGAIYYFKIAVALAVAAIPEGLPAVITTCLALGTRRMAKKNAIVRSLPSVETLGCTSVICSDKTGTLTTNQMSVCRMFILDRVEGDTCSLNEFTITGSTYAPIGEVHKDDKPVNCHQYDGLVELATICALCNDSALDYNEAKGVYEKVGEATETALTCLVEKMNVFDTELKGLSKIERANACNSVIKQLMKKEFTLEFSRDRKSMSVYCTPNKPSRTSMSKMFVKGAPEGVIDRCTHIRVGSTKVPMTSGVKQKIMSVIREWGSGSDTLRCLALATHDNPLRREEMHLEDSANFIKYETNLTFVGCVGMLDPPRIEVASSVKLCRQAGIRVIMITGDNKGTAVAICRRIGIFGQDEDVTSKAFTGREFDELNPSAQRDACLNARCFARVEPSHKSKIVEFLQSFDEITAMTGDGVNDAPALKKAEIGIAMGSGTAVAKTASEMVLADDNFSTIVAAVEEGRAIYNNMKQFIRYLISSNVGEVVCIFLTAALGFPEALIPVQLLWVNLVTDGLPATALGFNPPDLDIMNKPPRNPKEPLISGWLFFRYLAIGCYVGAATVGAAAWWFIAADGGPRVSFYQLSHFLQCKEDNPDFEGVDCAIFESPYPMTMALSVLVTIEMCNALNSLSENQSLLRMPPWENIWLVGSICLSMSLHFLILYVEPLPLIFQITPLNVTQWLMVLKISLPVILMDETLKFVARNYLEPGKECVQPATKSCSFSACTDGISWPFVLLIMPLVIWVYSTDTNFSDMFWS

Take `Cc1ccc2cccc(C(=O)Nc3ccc(OC(C)C)cc3)c2n1` [A1, N-(4-Isopropoxyphenyl)-2-methylquinoline-8-carboxamide]: the EC50 in assay [1] lay in the range of 1 to 10 µM. The inhibition in vivo at 50 mg/kg in assay [2] was greater than 30%. In addition, the viability at 20 µM in assay [3] was greater than 50%. In addition, the viability at 7.5 µM in assay [4] fell in the range of 10 to 50%. Besides, the “SERCA Vmax Increase” value in assay [5] is “A (an increase in SERCA Vmax greater than or equal to 50%)”.
For `Cc1ccc2cccc(C(=O)Nc3ccc(N(C)C)cc3)c2n1` [A4, N-(4-(Dimethylamino)phenyl)-2-methylquinoline-8-carboxamide], the EC50 in assay [1] is less than 1 µM. Besides, the inhibition in vivo at 50 mg/kg in assay [2] fell in the range of 21 to 30%. In assay [3], the viability at 20 µM was 10 to 50%. For the same compound, in assay [4], the viability at 7.5 µM fell in the range of 10 to 50%. The “SERCA Vmax Increase” value in assay [5] is on record as “A (an increase in SERCA Vmax greater than or equal to 50%)”.
In assay [1], `Cc1ccc2cccc(C(=O)Nc3cccc(F)c3)c2n1` [A3, N-(3-Fluorophenyl)-2-methylquinoline-8-carboxamide] came in with an EC50 of 10 to 20 µM. In addition, the inhibition in vivo at 50 mg/kg in assay [2] was in the range of 10 to 20%. Also, in assay [3], the viability at 20 µM was 10 to 50%. The viability at 7.5 µM in assay [4] lay in the range of 10 to 50%. The “SERCA Vmax Increase” value in assay [5] was “B (a value greater than 10% and less than 50%)”.
Take `Cc1ccc2cccc(C(=O)Nc3ccc(Br)s3)c2n1` [B2, N-(5-Bromothiophen-2-yl)-2-methylquinoline-8-carboxamide]: the EC50 in assay [1] is 1 to 10 µM. In addition, the inhibition in vivo at 50 mg/kg in assay [2] was in the range of 21 to 30%. Further, the viability at 20 µM in assay [3] was greater than 50%. In addition, the viability at 7.5 µM in assay [4] fell in the range of 10 to 50%. Besides, the “SERCA Vmax Increase” value in assay [5] is “A (an increase in SERCA Vmax greater than or equal to 50%)”.
In assay [1], `Cc1ccc2cccc(C(=O)Nc3ccc(Cl)cc3)c2n1` [A2, N-(4-Chlorophenyl)-2-methylquinoline-8-carboxamide] gave an EC50 of 1 to 10 µM. The inhibition in vivo at 50 mg/kg in assay [2] was greater than 30%. In addition, in assay [3], the viability at 20 µM is greater than 50%. In assay [4], the viability at 7.5 µM was no less than 50%. The “SERCA Vmax Increase” value in assay [5] is “B (a value greater than 10% and less than 50%)”.
Take `Cc1ccc2cccc(C(=O)Nc3ccc(C)s3)c2n1` [B3, 2-Methyl-N-(5-methylthiophen-2-yl)quinoline-8-carboxamide]: the EC50 in assay [1] fell in the range of 1 to 10 µM. The inhibition in vivo at 50 mg/kg in assay [2] was in the range of 10 to 20%. Also, the viability at 20 µM in assay [3] was no more than 10%. Moreover, in assay [4], the viability at 7.5 µM is 1 to 10%. In assay [5], the “SERCA Vmax Increase” value was “B (a value greater than 10% and less than 50%)”.
For `Cc1ccc2cccc(C(=O)Nc3cccs3)c2n1` [B4, 2-Methyl-N-(thiophen-2-yl)quinoline-8-carboxamide], the EC50 in assay [1] lay in the range of 1 to 10 µM. In addition, the inhibition in vivo at 50 mg/kg in assay [2] is greater than 30%. The viability at 20 µM in assay [3] was greater than 50%. Further, the viability at 7.5 µM in assay [4] is no less than 50%. Besides, the “SERCA Vmax Increase” value in assay [5] was “B (a value greater than 10% and less than 50%)”.
In assay [1], `Cc1ccc(NC(=O)c2cccc3ccc(C)nc23)cc1` [A5, N-(4-Methylphenyl)-2-methylquinoline-8-carboxamide] displayed an EC50 of 1 to 10 µM. The inhibition in vivo at 50 mg/kg in assay [2] fell in the range of 21 to 30%. Besides, the viability at 20 µM in assay [3] was greater than 50%. Besides, in assay [4], the viability at 7.5 µM is no less than 50%. The “SERCA Vmax Increase” value in assay [5] is “B (a value greater than 10% and less than 50%)”.
Take `Cc1ccc2cccc(C(=O)Nc3ccc(C4CC4)s3)c2n1` [B5, N-(5-Cyclopropylthiophen-2-yl)-2-methylquinoline-8-carboxamide]: in assay [1], the EC50 lay within 1 to 10 µM. Moreover, the inhibition in vivo at 50 mg/kg in assay [2] is 10 to 20%. In addition, in assay [3], the viability at 20 µM was no more than 10%. For the same compound, the viability at 7.5 µM in assay [4] lay within 1 to 10%. Besides, in assay [5], the “SERCA Vmax Increase” value was “A (an increase in SERCA Vmax greater than or equal to 50%)”.
The compound `Cc1ccc2cccc(C(=O)Nc3cc(Br)cs3)c2n1` [B1, N-(4-Bromothiophen-2-yl)-2-methylquinoline-8-carboxamide] gave an EC50 in assay [1] of 1 to 10 µM. Moreover, the inhibition in vivo at 50 mg/kg in assay [2] was greater than 30%. Besides, in assay [3], the viability at 20 µM is greater than 50%. In addition, in assay [4], the viability at 7.5 µM lay within 10 to 50%. In addition, in assay [5], the “SERCA Vmax Increase” value is “A (an increase in SERCA Vmax greater than or equal to 50%)”.
